The results in this text go back to ChEMBL document CHEMBL1201862, “PubChem BioAssay data set” (2004).

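Results reflect a 48-hour exposure of cells in 96-well plates to compound at five concentrations. GI50 marks 50% less growth.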 Active and inactive are the calls of the source. Rule as the data show it: active = GI50 up to about 1.1 µM and inactive = higher. Where a SMILES comes first, the peptide text is derived from it. [ ]: non-standard residue; d: D form. The star is where a group is joined. Phe(4-NO2) = N[CH](Cc1ccc([N+](=O)[O-])cc1)C(=O)O; Boc = CC(C)(C)OC(=O)*; OBn = c1ccc(CO*)cc1

Among the test systems are A549; IGROV-1; TK-10; OVCAR-4; MOLT-4; EKVX; UO-31; DU-145; U-251; COLO 205; HCC 2998; KM12; SR; RXF 393; CCRF-CEM; MDA-N; SK-MEL-28; OVCAR-3; NCI-H522; 786-0.
Common to all, as to assay: inhibition of tumour cell growth, NCI panel, 48 h

As to `CCOC(=O)c1oc2ccc([N+](=O)[O-])c3c2c1CCC3`, the GI50 in the assay with A549 was > 100 µM (inactive); with IGROV-1, 57.9 µM (inactive); with TK-10, 47.6 µM (inactive); in the assay on OVCAR-4, > 100 µM (inactive); with MOLT-4, > 100 µM (inactive); with EKVX it was 73.6 µM (inactive). Further, the GI50 with UO-31 was 66.7 µM (inactive); in the assay on DU-145 it was > 100 µM (inactive); with U-251 it was 29.9 µM (inactive); in the assay with COLO 205 it was > 85.1 µM (inactive); in the assay with HCC 2998 it was > 87.9 µM (inactive); in the assay on KM12 it was > 79.3 µM (inactive). Also, the GI50 was > 100 µM (inactive) in the assay with SR; 26 µM (inactive) in the assay with RXF 393; > 95.1 µM (inactive) in the assay with CCRF-CEM; > 100 µM (inactive) in the assay with MDA-N; > 82.4 µM (inactive) with SK-MEL-28; > 100 µM (inactive) with OVCAR-3. Besides, the GI50 with NCI-H522 was 35.2 µM (inactive); in the assay with 786-0, 25.6 µM (inactive).

In the case of `COC(=O)CCC(NC(=O)OC(C)(C)C)C(=O)NC(Cc1ccc([N+](=O)[O-])cc1)C(=O)NCC(=O)OCc1ccccc1` (stereo not given) (Boc-Glu(OMe)-[Phe(4-NO2)]-Gly-OBn; configuration not given here), the GI50 was > 100 µM (inactive) in the assay with A549; > 100 µM (inactive) with IGROV-1; > 100 µM (inactive) with TK-10; > 92.3 µM (inactive) in the assay with OVCAR-4; > 100 µM (inactive) with MOLT-4; > 60.8 µM (inactive) with EKVX. Further, the GI50 in the assay on UO-31 is > 100 µM (inactive); in the assay on DU-145, > 100 µM (inactive); in the assay with U-251, 55.3 µM (inactive); with COLO 205 it was 38.7 µM (inactive); in the assay on HCC 2998, 99.8 µM (inactive); with KM12, > 100 µM (inactive). The GI50 in the assay with SR was > 53.8 µM (inactive); in the assay with RXF 393, 26.9 µM (inactive); with CCRF-CEM, 99.3 µM (inactive); in the assay with MDA-N, > 100 µM (inactive); with SK-MEL-28, > 100 µM (inactive); in the assay with OVCAR-3, > 100 µM (inactive). The GI50 in the assay with NCI-H522 is > 100 µM (inactive); in the assay with 786-0, 45.5 µM (inactive).

Turning to `Sc1ncnc2nc[nH]c12` [MERCAPTOPURINE ANHYDROUS], the GI50 with A549 is 30.1 µM (inactive); in the assay with IGROV-1 it was 9.48 µM (inactive); in the assay on TK-10 it was 1.94 µM (inactive); in the assay on OVCAR-4, 8.05 µM (inactive); with MOLT-4, 1.61 µM (inactive); in the assay with EKVX, 263 µM (inactive). The GI50 with UO-31 was 6.85 µM (inactive); in the assay with DU-145, 2.51 µM (inactive); in the assay on U-251, 13.7 µM (inactive); in the assay with COLO 205, 4.94 µM (inactive); in the assay on HCC 2998 it was 3.51 µM (inactive); in the assay with KM12, 7.57 µM (inactive). For the same molecule, the GI50 in the assay on SR is 1.24 µM (inactive); with RXF 393, 29.5 µM (inactive); in the assay with CCRF-CEM it was 1.26 µM (inactive); in the assay with MDA-N, 1.78 µM (inactive); with SK-MEL-28, 372 µM (inactive); in the assay on OVCAR-3 it was 0.857 µM (active). In addition, the GI50 in the assay with NCI-H522 was 1.62 µM (inactive); in the assay on 786-0, 2.03 µM (inactive).
